# Reference: patent US10669272B2, “Substituted naphthyridinone compounds useful as T cell activators” (BRISTOL-MYERS SQUIBB COMPANY, priority 2018, dated 2020)
# Where two headings read alike, the source gives them in different places.
# Assays:
# human DGKα = biological target: T1, human DGKα (Homo sapiens, UniProt P23743); assay: DGKα LIPGLO assay (extruded liposome substrate), in vitro DGK inhibition; format: biochemical; conditions: read-out: DGKa LIPGLO IC50
# T1 construct: TVMV protease cleavage site (C); Hexa-His (C); made in house; host or cells: Sf9 insect cells (baculovirus, Bac-to-Bac)
# T1 sequence (P23743 with tags, fused parts or gaps): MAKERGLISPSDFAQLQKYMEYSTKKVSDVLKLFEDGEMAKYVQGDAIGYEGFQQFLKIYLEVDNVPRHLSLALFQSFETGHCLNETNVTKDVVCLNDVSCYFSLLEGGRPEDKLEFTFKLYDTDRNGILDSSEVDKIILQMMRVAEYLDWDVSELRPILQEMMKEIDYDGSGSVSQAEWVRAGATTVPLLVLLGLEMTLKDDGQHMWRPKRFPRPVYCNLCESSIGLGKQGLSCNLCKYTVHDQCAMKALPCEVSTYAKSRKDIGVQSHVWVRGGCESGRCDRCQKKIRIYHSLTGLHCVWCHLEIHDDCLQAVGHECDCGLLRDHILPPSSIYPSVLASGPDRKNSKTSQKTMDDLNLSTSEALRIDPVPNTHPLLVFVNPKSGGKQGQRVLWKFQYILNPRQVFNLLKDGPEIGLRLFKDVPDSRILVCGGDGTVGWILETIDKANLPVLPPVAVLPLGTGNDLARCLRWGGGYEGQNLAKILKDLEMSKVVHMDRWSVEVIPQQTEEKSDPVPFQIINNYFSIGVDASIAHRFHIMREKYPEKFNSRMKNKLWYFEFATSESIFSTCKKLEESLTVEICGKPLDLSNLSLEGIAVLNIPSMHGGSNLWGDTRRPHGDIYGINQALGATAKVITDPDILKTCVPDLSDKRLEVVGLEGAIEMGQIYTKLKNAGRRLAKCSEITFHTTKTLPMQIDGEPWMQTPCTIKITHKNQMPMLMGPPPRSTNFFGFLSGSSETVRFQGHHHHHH
# human DGKζ = biological target: T2, human DGKζ (Homo sapiens, UniProt Q13574); assay: DGKζ LIPGLO assay (extruded liposome substrate), in vitro DGK inhibition; format: biochemical; conditions: read-out: DGKz LIPGLO IC50
# T2 construct: TVMV protease cleavage site (C); Hexa-His (C); made in house; host or cells: Sf9 insect cells (baculovirus, Bac-to-Bac)
# T2 sequence (Q13574 with tags, fused parts or gaps isoform Q13574-4): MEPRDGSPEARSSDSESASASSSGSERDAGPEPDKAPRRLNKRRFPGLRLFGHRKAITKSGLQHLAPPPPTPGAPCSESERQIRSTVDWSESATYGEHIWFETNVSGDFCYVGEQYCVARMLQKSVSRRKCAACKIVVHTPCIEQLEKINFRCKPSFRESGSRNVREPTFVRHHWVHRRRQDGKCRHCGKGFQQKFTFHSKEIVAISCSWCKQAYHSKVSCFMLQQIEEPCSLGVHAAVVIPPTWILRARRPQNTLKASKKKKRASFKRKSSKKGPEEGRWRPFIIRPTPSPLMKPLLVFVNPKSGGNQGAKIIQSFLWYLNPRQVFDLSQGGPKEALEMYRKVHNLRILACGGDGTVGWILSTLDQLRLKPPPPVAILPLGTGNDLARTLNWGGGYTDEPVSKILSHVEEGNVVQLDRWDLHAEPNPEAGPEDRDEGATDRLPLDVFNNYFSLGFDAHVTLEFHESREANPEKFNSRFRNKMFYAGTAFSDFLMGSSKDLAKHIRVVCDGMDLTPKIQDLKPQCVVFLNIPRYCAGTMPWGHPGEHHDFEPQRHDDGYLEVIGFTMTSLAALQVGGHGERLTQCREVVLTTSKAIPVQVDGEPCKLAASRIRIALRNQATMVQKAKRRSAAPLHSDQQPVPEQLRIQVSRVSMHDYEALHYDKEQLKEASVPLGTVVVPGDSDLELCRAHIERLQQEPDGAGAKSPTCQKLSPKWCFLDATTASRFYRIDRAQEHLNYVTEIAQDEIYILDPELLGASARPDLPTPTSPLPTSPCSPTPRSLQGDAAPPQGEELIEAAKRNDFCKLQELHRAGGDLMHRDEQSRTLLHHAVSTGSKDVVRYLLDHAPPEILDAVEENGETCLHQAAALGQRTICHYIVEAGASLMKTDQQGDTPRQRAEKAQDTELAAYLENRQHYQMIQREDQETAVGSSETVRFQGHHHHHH
# Human venous whole blood = assay: Human whole blood IFN-γ assay; format: cell-based; conditions: human whole blood, read-out: INFg Whole Blood Normalized Agonist EC50;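 further: blood from healthy donors exposed to compound for 1 h before stimulation with anti-CD3 and anti-CD28 at 1 µg/mL each, IFN-γ quantified in supernatant by AlphaLISA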
# Experimental: Human Whole Blood IFN-γ Assay
# Human venous whole blood (22.5 μL per well), obtained from healthy donors, was pre-treated with compounds for one hour at 37° C. in a humidified 95% air/5% CO2 incubator. The blood was stimulated with 2.5 μL anti-human CD3 and anti-CD28 mAb at a final concentration of 1 μg/mL each for 24 hours at 37° C. IFN-γ in the supernatants was measured using AlphLISA kit (Cat # AL217).
# [1] = Homo sapiens, 24 h, normalized to 3 μM reference compound with anti-CD3 plus anti-CD28 as 100% activation
# [2] = normalized to 3 μM reference compound with anti-CD3 plus anti-CD28 as 100% activation
# [3] = anti-CD3 plus anti-CD28, 24 hours, 3 μM reference compound = 100% activation
# [4] = Homo sapiens, 24 h, anti-CD3 plus anti-CD28, 24 hours, 3 μM reference compound = 100% activation
Compound,IC50 (human DGKα; liposome (LIPGLO) assay),IC50 (human DGKζ; liposome (LIPGLO) assay),EC50 (Human venous whole blood; [1]),EC50 (Human venous whole blood; [2]),IC50 (human DGKα; DGKα liposome (LIPGLO) assay),IC50 (human DGKζ; DGKζ liposome (LIPGLO) assay),EC50 (Human venous whole blood; [3]),EC50 (Human venous whole blood; [4])
"C[C@@H]1CN(c2c(C#N)c(=O)n(C)c3ccc(C#N)nc23)CCN1C(c1ccc(Cl)cc1)c1ccncn1 (single isomer, unassigned) [Example 319]",2200 nM,6600 nM,1600 nM,–,–,–,–,–
"CC(c1nc(C2CC2)no1)N1C[C@H](C)N(c2c(C#N)c(=O)n(C)c3ccc(C#N)nc23)C[C@H]1C (single isomer, unassigned) [Example 1307]",5600 nM,14000 nM,20000 nM,–,–,–,–,–
"CC[C@@H]1CN(c2cc(=O)n(C)c3ccc(C#N)nc23)[C@@H](C)CN1C(C)c1ccc(F)c(F)c1 (single isomer, unassigned) [Example 1091]",230 nM,110 nM,–,140 nM,–,–,–,–
"CC[C@H]1CN(C(C)c2ccc(F)cc2F)[C@H](C)CN1c1cc(=O)n(C)c2ccc(C#N)nc12 (single isomer, unassigned) [Example 1137]",26 nM,45 nM,–,290 nM,–,–,–,–
"C[C@@H]1CN(c2cc(=O)n(C)c3ccc(C#N)nc23)[C@@H](C)CN1C(c1ccc(F)cc1)c1nnc(C2CC2)[nH]1 (single isomer, unassigned) [Example 767]",–,–,–,–,440 nM,6600 nM,2300 nM,–
"C[C@@H]1CN(c2c(C#N)c(=O)n(C)c3ccc(C#N)nc23)[C@@H](C)CN1C(c1ccccc1)c1cc(F)cc(F)c1 (single isomer, unassigned) [Example 813]",–,–,–,–,85000 nM,3700 nM,20000 nM,–
CC[C@@H]1CN(c2cc(=O)n(C)c3ccc(C#N)nc23)[C@@H](C)CN1C(c1ccc(F)cc1)c1nc(C2CC2)no1 (stereo partly drawn) [Example 1117],15 nM,17 nM,150 nM,–,–,–,–,–
COc1ccc(C(C)N2C[C@H](C)N(c3cc(=O)n(C)c4ccc(C#N)nc34)C[C@H]2C)cc1OCCN1CCOCC1 (stereo partly drawn) [Example 1305],130000 nM,7500 nM,20000 nM,–,–,–,–,–
"CC[C@@H]1CN(c2cc(=O)n(C)c3ccc(C#N)nc23)[C@@H](C)CN1C(C)c1ccc(C#N)cc1 (single isomer, unassigned) [Example 1346]",52 nM,450 nM,–,6000 nM,–,–,–,–
"CC[C@H]1CN(C(C)c2ccc(C(F)(F)F)cc2)[C@H](CC)CN1c1cc(=O)n(C)c2ccc(C#N)nc12 (single isomer, unassigned) [Example 1051]",270 nM,210 nM,–,42 nM,–,–,–,–
"Cc1ccc(C(c2cc(C)ccn2)N2C[C@H](C)N(c3cc(=O)n(C)c4ccc(C#N)nc34)C[C@H]2C)cc1 (single isomer, unassigned) [Example 461]",1400 nM,3600 nM,–,2100 nM,–,–,–,–
Cc1ccc(C(c2ccc(F)cc2)N2C[C@H](C)N(c3c(C#N)c(=O)n(C)c4ccc(C#N)nc34)C[C@H]2C)cc1 (stereo partly drawn) [Example 817],–,–,–,–,22000 nM,8600 nM,1100 nM,–
"Cc1c(F)ccc(C(C)N2C[C@H](C)N(c3cc(=O)n(C)c4ccc(C#N)nc34)C[C@H]2C)c1Cl (single isomer, unassigned) [Example 433]",79000 nM,240 nM,1300 nM,–,–,–,–,–
"C[C@@H]1CN(c2c(C#N)c(=O)n(C)c3ccc(C#N)nc23)CCN1C(c1ccc(F)cc1)c1ccccn1 (single isomer, unassigned) [Example 919]",–,–,–,–,980 nM,5800 nM,1400 nM,–
COc1cc(F)c(C(C)N2C[C@H](C)N(c3cc(=O)n(C)c4ccc(C#N)nc34)C[C@H]2C)cc1F (stereo partly drawn) [Example 1244],660 nM,30 nM,120 nM,–,–,–,–,–
"C[C@@H]1CN(C(c2ccc(F)cc2)c2ccc(F)cc2)[C@@H](CO)CN1c1cc(=O)n(C)c2ccc(C#N)nc12 [Example 1172, 8-((2R,5R)-4-(bis(4-fluorophenyl)methyl)-5-(hydroxymethyl)-2-methylpiperazin-1-yl)-5-methyl-6-oxo-5,6-dihydro-1,5-naphthyridine-2-carbonitrile]",22000 nM,3200 nM,420 nM,–,–,–,–,–
"CC[C@H]1CN(C(c2ccc(F)cc2)c2cccc(C(F)(F)F)n2)[C@H](C)CN1c1cc(=O)n(C)c2ccc(C#N)nc12 (single isomer, unassigned) [Example 1134]",360 nM,130 nM,–,340 nM,–,–,–,–
"CC[C@H]1CN(C(C)c2ccc(C(F)(F)F)cc2)[C@H](CC)CN1c1cc(=O)n(C)c2ccc(C#N)nc12 (single isomer, unassigned) [Example 1052]",2500 nM,2000 nM,–,190 nM,–,–,–,–
C[C@@H]1CN(c2c(C#N)c(=O)n(C)c3ccc(C#N)nc23)CCN1C(c1ccc(F)cc1)c1cocn1 (stereo partly drawn) [Example 1022],–,–,–,–,2900 nM,12000 nM,–,2500 nM

Compound,IC50 (human DGKα; liposome (LIPGLO) assay),IC50 (human DGKζ; liposome (LIPGLO) assay),EC50 (Human venous whole blood; [1]),EC50 (Human venous whole blood; [2]),IC50 (human DGKα; DGKα liposome (LIPGLO) assay),IC50 (human DGKζ; DGKζ liposome (LIPGLO) assay),EC50 (Human venous whole blood; [3]),EC50 (Human venous whole blood; [4])
C[C@@H]1CN(c2cc(=O)n(C)c3ccc(C#N)nc23)[C@@H](C)CN1C(c1ccc(F)cc1)c1nc(C(F)F)no1 (stereo partly drawn) [Example 743],–,–,–,–,120 nM,1600 nM,–,420 nM
"CC(c1ccc(OC(F)(F)F)cc1)N1C[C@H](CO)N(c2cc(=O)n(C)c3ccc(C#N)nc23)C[C@H]1C (single isomer, unassigned) [Example 1420]",820 nM,1700 nM,–,1700 nM,–,–,–,–
"CC(c1ccccc1F)N1C[C@H](C)N(c2c(C#N)c(=O)n(C)c3ccc(C#N)nc23)C[C@H]1C (single isomer, unassigned) [Example 798]",–,–,–,–,9800 nM,> 250000 nM,20000 nM,–
CC[C@@H]1CN(c2cc(=O)n(C)c3ccc(C#N)nc23)[C@@H](C)CN1Cc1ccc(OC(F)(F)F)cc1OC [Example 1081],1500 nM,680 nM,250 nM,–,–,–,–,–
"C[C@@H]1CN(c2cc(=O)n(C)c3ccc(C#N)nc23)[C@@H](C)CN1C(CO)c1ccc(F)cc1 (single isomer, unassigned) [Example 557]",500 nM,5300 nM,–,1600 nM,–,–,–,–
CC[C@H]1CN(C(c2ccc(F)cc2)c2ccc(C#N)cc2)[C@H](C)CN1c1cc(=O)n(C)c2ccc(C#N)nc12 (stereo partly drawn) [Example 1123],1200 nM,4700 nM,2600 nM,–,–,–,–,–
C[C@@H]1CN(c2c(C#N)c(=O)n(C)c3ccc(C#N)nc23)CCN1C(c1ccc(Cl)cc1)c1ccc(Cl)cn1 (stereo partly drawn) [Example 930],–,–,–,–,640 nM,1300 nM,–,1300 nM
CCOC[C@@H]1CN(c2cc(=O)n(C)c3ccc(C#N)nc23)[C@@H](C)CN1C(c1ccc(F)cc1)c1ccc(C(F)(F)F)cn1 (stereo partly drawn) [Example 1404],900 nM,50 nM,–,900 nM,–,–,–,–
"COc1cc(F)c(C(C)N2C[C@H](C)N(c3cc(=O)n(C)c4ccc(C#N)nc34)C[C@H]2C)cc1OC (single isomer, unassigned) [Example 1247]",24000 nM,7400 nM,–,20000 nM,–,–,–,–
"C[C@@H]1CN(c2cc(=O)n(C)c3ccc(C#N)nc23)[C@@H](C)CN1C(c1ccc(Cl)cc1)c1cc(F)ccn1 (stereo partly drawn) [Example 446, 8-((2S,5R)-4-((4-chlorophenyl)(4-fluoropyridin-2-yl)methyl)-2,5-dimethylpiperazin-1-yl)-5-methyl-6-oxo-5,6-dihydro-1,5-naphthyridine-2-carbonitrile]",1700 nM,2100 nM,1100 nM,–,–,–,–,–
"C[C@@H]1CN(c2cc(=O)n(C)c3ccc(C#N)nc23)[C@@H](C)CN1C(c1ccc(F)cc1)C(F)(F)F (single isomer, unassigned) [Example 583]",100 nM,950 nM,–,460 nM,–,–,–,–
C[C@@H]1CN(c2cc(=O)n(C)c3ccc(C#N)nc23)[C@@H](C)CN1Cc1ccc(OC(F)(F)F)cc1C#N [Example 581],1300 nM,6700 nM,2700 nM,–,–,–,–,–
"C[C@@H]1CN(c2c(C#N)c(=O)n(C)c3ccc(C#N)nc23)CCN1C(c1ccccc1)c1cc(F)cc(F)c1 (single isomer, unassigned) [Example 875]",–,–,–,–,1700 nM,510 nM,–,3100 nM
CC[C@@H]1CN(c2cc(=O)n(C)c3ccc(C#N)nc23)[C@@H](CC)CN1Cc1ccc(OC(F)(F)F)cc1 [Example 1363],45 nM,550 nM,430 nM,–,–,–,–,–
"Cc1ncc(C(c2ccc(F)cc2)N2C[C@H](C)N(c3cc(=O)n(C)c4ccc(C#N)nc34)C[C@H]2C)cn1 (single isomer, unassigned) [Example 406]",2400 nM,2800 nM,11000 nM,–,–,–,–,–
"C[C@@H]1CN(c2c(C#N)c(=O)n(C)c3ccc(C#N)nc23)CCN1C(c1cccc(F)c1)c1ccc(C(F)(F)F)cn1 (single isomer, unassigned) [Example 948]",–,–,–,–,600 nM,310 nM,340 nM,–
"CCC(c1ccc(OC(C)(C)C)cc1)N1C[C@H](C)N(c2cc(=O)n(C)c3ccc(C#N)nc23)C[C@H]1C (single isomer, unassigned) [Example 1443]",56 nM,240 nM,810 nM,–,–,–,–,–
"CC(c1ccc2c(c1)OC(F)(F)O2)N1C[C@H](C)N(c2cc(=O)n(C)c3ccc(C#N)nc23)C[C@H]1C (single isomer, unassigned) [Example 654]",2000 nM,130 nM,–,400 nM,–,–,–,–
"CC(c1ccccc1OC(F)(F)F)N1C[C@H](C)N(c2cc(=O)n(C)c3ccc(C#N)nc23)C[C@H]1C (single isomer, unassigned) [Example 1213]",56000 nM,3600 nM,–,8400 nM,–,–,–,–
